Our source for the DC50 values is patent publication US12310975B2, “Modulators of BCL6 proteolysis and associated methods of use” (Arvinas Operations, Inc., priority 2019, dated 2025).

Some results are limits rather than exact numbers.

This assay deals with BCL6 (Homo sapiens (Human), UniProt P41182). In words: Immunofluorescence high content imaging of BCL6 degradation in T47D cells. It counts as cell-based. Conditions: class symbols A-D, read-out: EC50 (nM)*. The method in brief:
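BCL6 loss was quantified by high-content imaging (10×, 4 fields/well) after PFA fixation and anti-BCL6/Alexa-488 staining with Hoechst nuclear and CellMask counterstains. Compounds were applied for 3 days to T47D breast cancer cells in RPMI-10% FBS, 11 points, 3-fold steps, top 0.1 or 1 μM.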
Turning to `CNC(=O)COc1cc2cc(Nc3nc(N4CCC(c5cn(CCOCCOCCOCCOCCOc6ccc7c(c6)C(=O)N(C6CCC(=O)NC6=O)C7=O)nn5)CC4)ncc3Cl)ccc2n(C)c1=O` (stereo not drawn) [compound 121, 2-((6-((5-chloro-2-(4-(1-(14-((2-(2,6-dioxopiperidin-3-yl)-1,3-dioxoisoindolin-5-yl)oxy)-3,6,9,12-tetraoxatetradecyl)-1H-1,2,3-triazol-4-yl)piperidin-1-yl)pyrimidin-4-yl)amino)-1-methyl-2-oxo-1,2-dihydroquinolin-3-yl)oxy)-N-methylacetamide], the DC50 lay within 50 to 100 nM.

On to `CNC(=O)COc1cc2cc(Nc3nc(N4CCC(Cc5cn(CCOCC(=O)N[C@H](C(=O)N6C[C@H](O)C[C@H]6C(=O)N[C@@H](C)c6ccc(-c7scnc7C)cc6)C(C)(C)C)nn5)CC4)ncc3Cl)ccc2n(C)c1=O` [compound 122, (2S,4R)-1-((S)-2-(2-(2-(4-((1-(5-chloro-4-((1-methyl-3-(2-(methylamino)-2-oxoethoxy)-2-oxo-1,2-dihydroquinolin-6-yl)amino)pyrimidin-2-yl)piperidin-4-yl)methyl)-1H-1,2,3-triazol-1-yl)ethoxy)acetamido)-3,3-dimethylbutanoyl)-4-hydroxy-N-((S)-1-(4-(4-methylthiazol-5-yl)phenyl)ethyl)pyrrolidine-2-carboxamide], for which the DC50 lay within 50 to 100 nM. Take `CNC(=O)COc1cc2cc(Nc3nc(N4CCC(Cc5cn(CCOCCOCCOCC(=O)N[C@H](C(=O)N6C[C@H](O)C[C@H]6C(=O)N[C@@H](C)c6ccc(-c7scnc7C)cc6)C(C)(C)C)nn5)CC4)ncc3Cl)ccc2n(C)c1=O` [compound 123, (2S,4R)-1-((S)-2-(tert-butyl)-14-(4-((1-(5-chloro-4-((1-methyl-3-(2-(methylamino)-2-oxoethoxy)-2-oxo-1,2-dihydroquinolin-6-yl)amino)pyrimidin-2-yl)piperidin-4-yl)methyl)-1H-1,2,3-triazol-1-yl)-4-oxo-6,9,12-trioxa-3-azatetradecanoyl)-4-hydroxy-N-((S)-1-(4-(4-methylthiazol-5-yl)phenyl)ethyl)pyrrolidine-2-carboxamide]: the DC50 was in the range of 50 to 100 nM. Turning to `CNC(=O)COc1cc2cc(Nc3nc(N4CCC(Cc5cn(CCOCCOCCOCCOCCOCC(=O)N[C@H](C(=O)N6C[C@H](O)C[C@H]6C(=O)N[C@@H](C)c6ccc(-c7scnc7C)cc6)C(C)(C)C)nn5)CC4)ncc3Cl)ccc2n(C)c1=O` [compound 124, (2S,4R)-1-((S)-2-(tert-butyl)-20-(4-((1-(5-chloro-4-((1-methyl-3-(2-(methylamino)-2-oxoethoxy)-2-oxo-1,2-dihydroquinolin-6-yl)amino)pyrimidin-2-yl)piperidin-4-yl)methyl)-1H-1,2,3-triazol-1-yl)-4-oxo-6,9,12,15,18-pentaoxa-3-azaicosanoyl)-4-hydroxy-N-((S)-1-(4-(4-methylthiazol-5-yl)phenyl)ethyl)pyrrolidine-2-carboxamide], the DC50 was 50 to 100 nM. For `CNC(=O)COc1cc2cc(Nc3nc(N4CCC(c5ccc(OCCCOCCCOCCOc6ccc7c(c6)CN(C6CCC(=O)NC6=O)C7=O)cc5)CC4)ncc3Cl)ccc2n(C)c1=O` (stereo not drawn) [compound 125, 2-((6-((5-chloro-2-(4-(4-(3-(3-(2-((2-(2,6-dioxopiperidin-3-yl)-1-oxoisoindolin-5-yl)oxy)ethoxy)propoxy)propoxy)phenyl)piperidin-1-yl)pyrimidin-4-yl)amino)-1-methyl-2-oxo-1,2-dihydroquinolin-3-yl)oxy)-N-methylacetamide], the DC50 was greater than 100 nM. Turning to `CNC(=O)COc1cc2cc(Nc3nc(N4CCC(OCCOCCOCCOCCc5cccc(Oc6ccc7c(c6)CN(C6CCC(=O)NC6=O)C7=O)c5)CC4)ncc3Cl)ccc2n(C)c1=O` (stereo not drawn) [compound 126, 2-((6-((5-chloro-2-(4-(2-(2-(2-(3-((2-(2,6-dioxopiperidin-3-yl)-1-oxoisoindolin-5-yl)oxy)phenethoxy)ethoxy)ethoxy)ethoxy)piperidin-1-yl)pyrimidin-4-yl)amino)-1-methyl-2-oxo-1,2-dihydroquinolin-3-yl)oxy)-N-methylacetamide], the DC50 was greater than 100 nM.
